According to a melting point compilation (Tetko et al.; mined from patent text by program, amines drawn as free bases though some values may be those of a salt):

Structure (SMILES) | melting point [°C]
FC(F)(F)c1ccc(Sc2nc(-c3ccccc3)c(-c3ccccc3)[nH]2)cc1 | 227 to 229
O=S1(=O)c2cccc3cccc(c23)N1CC(O)CN1CCN(c2ccc(F)cc2)CC1 (stereo not drawn) | 130
O=c1c(Cc2ccccn2)cc2cccnc2n1-c1cccc([N+](=O)[O-])c1 | 229 to 231
Cc1ccnc(C(=O)c2sc(Cl)nc2C)c1 | 115 to 116
CCC(C)(C)NC1=NS(=O)(=O)c2sc(Cl)cc2N1 | 359 to 360
Cn1cc(C2=C(c3cn(C)c4cc(O)ccc34)C(=O)NC2=O)c2ccccc21 | 279 to 282
Fc1ccc(-n2c(OCCN3CCCC3)cc3ccc(Cl)cc32)cc1 | 60 to 62
CC12CCC(=O)C=C1CCC1C2CCC2(C)C(C(=O)NC3C4CC5CC(C4)CC3C5)CCC12 (stereo not drawn) | 244 to 246
CC(C)CCNc1nc(-c2ccccc2)c(-c2ccnc(Nc3ccccc3)n2)s1 | 170 to 172
Cc1ccc(C#N)c2c([N+](=O)[O-])ccc(Cl)c12 | 179 to 180
CCCc1cc(OCC)c2c(c1OC)S(=O)(=O)N(CCl)C2=O | 131 to 133
CCc1cc2c(c(CC)n1)CCC(=O)N2 | 90 to 94
CC(C)(C)OC(=O)NC(COCCCN)(COCCCN)COCCCN | 96 to 98
COC(=O)Cn1nnnc1CCC(NC(=O)CCC(C)(NC(=O)OCc1ccccc1)C(=O)O)C(=O)OC (stereo not drawn) | 64 to 65
CCOC(=O)c1snnc1SC | 64.5 to 65.5
CCCCCCCCCCCCCC(=O)O[C@H](CCCCCCCCCCC)CC(=O)NC(=O)[C@@H](N)CO | 126 to 130
O=C(Cl)c1cc([N+](=O)[O-])cc2c1OCCO2 | 108
Cc1cccc(C)c1C=Nc1cc(Cl)c(N=CN(C)C)c(Cl)c1 | 123 to 124
ClCC1COC(Cc2ccc(Cl)cc2)(c2ccccc2)O1 (stereo not drawn) | 65
Cc1ccc(C=Cc2ccc(-c3ccccc3)s2)cc1 | 159 to 160
Cn1ncnc1COc1nn2c(-c3ccccc3F)nncc2c1-c1ccco1 | 188 to 190
O=C1Nc2ccccc2SC1CCN1C=CN(c2ccc(F)cc2)C=C1 (stereo not drawn) | 158 to 159

Structure (SMILES) | melting point [°C]
Cc1nc2ccccn2c(=O)c1CC1CCCCC1 | 112 to 114
CCn1cc(C(=O)O)c(=O)c2cc(F)c(N3CCNC(COC)C3)cc21 (stereo not drawn) | 169 to 170
CCCCCCCCNC(=O)CCCC(C)(C)c1ccc(O)cc1O | 110 to 113
C#CC(C)N1C(=O)c2ccccc2C1=O (stereo not drawn) | 104 to 106
COc1cc(OC)c([C@@H]2CCCC[C@H]2O)c(O)c1C(C)=O (relative stereo) | 162 to 164
O=C(CCC1CCNCC1)c1ccc2c(c1)NCCCC2 | 104 to 107
CS(=O)(=O)C(=C1CN(C(c2ccccc2)c2ccccc2)C1)c1cccc(N2CCCC2)c1 | 153
CC1(C)CC(=O)c2c(S(C)(=O)=O)sc(C(=O)N3CCCC3)c2C1 | 161
O=S(=O)(CC1CCC1)c1nc[nH]n1 | 125 to 134
Cc1ccccc1N1CCc2nnc3c(C)cccc3c21 | 135 to 137
c1ccc(CN2CCN(c3ccnc4ccccc34)CC2)cc1 | 105 to 106
COc1cc(COc2nn(-c3ccccc3)cc2/C=C/C(=O)O)ccc1OCc1nc(-c2ccco2)oc1C | 204 to 205
O=C1C(=O)c2ccccc2C2=C1SCC1(CCN(C3CCCC3O)CC1)O2 (stereo not drawn) | 110 to 113
CCCCN1CCn2c1nc(C(=O)NCc1ccc(F)cc1-n1cnc(C)n1)c(O)c2=O | 214
N#Cc1ccc(N2CCN(CC(=O)O)CC2=O)cc1 | 120
COC1=CC(=O)c2c(O)c(CO)c(CC(C)O)c(O)c2C1=O (stereo not drawn) | 206 to 212
COc1ccc(C2CNC(=O)C2)cc1OCC(CN1CCN(c2ccccc2)CC1)OC(C)=O (stereo not drawn) | 128 to 133
Cc1nscc1C(=O)NC1CC1 | 106 to 108
CS(=O)(=O)c1ccc(-c2cnn(-c3ccsc3)c(=O)c2-c2ccc(F)cc2)cc1 | 200 to 202
COCCOn1nnc2ccc(Cn3ccnc3)cc21 | 77
CCCN(CCC)CCC1=CC(=O)CCC1 | 95 to 97
CS(=O)(=O)OCC1CCN(C(=O)OCc2ccccc2)CC1 | 72 to 74

Structure (SMILES) | melting point [°C]
CC1(O)CCCc2nc3ccccc3c(N)c21 (stereo not drawn) | 250
CC1C(=O)N(c2ccccc2)C(=S)N1c1ccc(Sc2ccccc2)cc1 (stereo not drawn) | 84
CCc1nc(CC)c(CO)c(-c2ccccc2)c1C=C(C)C | 103 to 104
c1ccc2cc(-c3cc4nccnc4[nH]3)ncc2c1 | 281 to 285
CCOC(=O)c1c[nH]nc1-c1cccs1 | 123 to 124
Cc1onc(NS(=O)(=O)c2ccccc2)c1Cl | 139 to 141
CN(C(=O)Cc1[nH]c(=O)c2ccc(Cl)cc2c1-c1ccccc1)c1cc(C(F)(F)F)cc(C(F)(F)F)c1 | 181 to 182
CCCCC(CC)COc1cc(CCl)c(OC)cc1CCl (stereo not drawn) | 58 to 60
Cc1ccc(SN(CC(=O)OCc2ccccc2)CP(=O)(Oc2ccccc2)Oc2ccccc2)cc1 | 108 to 111
CCCc1nc2c(N)nc3ccc(-c4cccc(CO)c4)cc3c2s1 | 176 to 177
CCCCCc1n[nH]c(CCCCC)n1 | 66 to 68
CC(=O)OCC1SC(Oc2cc(C)cc(O)c2C(C)=O)C(OC(C)=O)C(OC(C)=O)C1OC(C)=O (stereo not drawn) | 162 to 164
COC1NC(=O)N(C2CCCCC2)C1=O (stereo not drawn) | 135 to 137
CSc1nccc(-c2nc(=O)c3ccccc3s2)n1 | 224
c1ccc2c(OCCCCCCCCOc3cccc4ccccc34)cccc2c1 | 60
Cn1c(C(F)(F)F)cc(=O)n(-c2ccc(Cl)c(C=O)c2)c1=O | 151 to 153
CO[C@@H]1CN(CC2OCCO2)CC[C@@H]1NC(=O)c1cc(Cl)c(N)c2c1OCC2 (relative stereo) | 149
N#CC(C(=O)O)=C1Nc2ccccc2O1 | 185 to 187
CC(C)Oc1cc2c(cc1O)C(=O)CC(C)(C)O2 | 138 to 139
CCOC(=O)C=Cc1c(OCc2ccc(OCc3nc(-c4ccccc4)oc3C)cc2)ccc2ccccc12 | 73 to 74
N#Cc1c(-c2ccc(Cl)c(Cl)c2)cc(C2CC2)nc1Cl | 158 to 160

Second part, the molecule after the results:

melting point [°C] | Structure (SMILES)
292 to 294 | CNC(=O)Cn1nc(-c2ccccc2)c(-c2ccccc2)c(C#N)c1=O
192 | CCC(=O)OC(C)(CC)c1nc2c(C(F)(F)F)cccc2c(O)c1C(=O)Nc1ccccn1 (stereo not drawn)
88 to 90 | CC(C)(C)CNc1nc(C(=O)C(=O)c2ccccc2)ccc1[N+](=O)[O-]
198 | CCOc1ccccc1C1(Cl)C(=O)Nc2ccc(Cl)cc21 (stereo not drawn)
136 to 138 | COc1ccc(-c2cnc(N)c(Sc3cc(C(F)(F)F)cc(C(F)(F)F)c3)n2)cc1
154 to 156 | CC(C)c1cc(C(=O)Nc2ccc(CC(=O)O)cc2)oc1C(C)C
125 to 128 | CCOC(=O)C(=O)Nc1nc(CN2CCN(C(c3ccccc3)c3ccccc3)CC2)cs1
253 to 255 | O=C(NCc1ccc(Cl)cc1)c1cnc2c(F)cc(C#CCCO)cc2c1O
73 to 75 | COc1ccc(OCC(O)CNC(C)(C)C)c(C)c1C (stereo not drawn)
174 to 176 | O=C(NOCCO)c1cc(Cl)c(F)c(F)c1Nc1ccc(I)cc1
207 to 210 | Nc1cc(Cl)c(N)c2c1C(=O)c1ccccc1C2=O
142 to 143 | CC1=C(c2ccncc2)SC(OC(=O)c2cccc(Cl)c2)C(=O)N1 (stereo not drawn)
246 to 248 | Oc1cccc2c1CCC(c1ccccn1)O2 (stereo not drawn)
181 to 182 | CCNC(=O)c1c(Br)ccc(OC)c1Cl
192 to 194 | Cn1cc(CC(=O)O)c2cc(Br)ccc21
> 280 | Nc1nc(-c2ccc(-c3ccccc3)cc2)cn1N
160 to 161 | CC(=O)Nc1ccc(S(=O)(=O)NCc2noc(-c3c4ccccc4nn3CCn3ccnc3)n2)cc1
197 to 199 | O=C(O)c1ccc2c(c1)CN(C(=O)OCc1ccccc1)C2
132 to 133 | CC(C)(C)c1cc(C(O)COc2ccc(C(=O)O)c(O)c2)cc(C(C)(C)C)c1O (stereo not drawn)

melting point [°C] | Structure (SMILES)
71 | CCOc1ccc(CC(=O)NCCc2ccc(OC(C)C)c(OC(C)C)c2)cc1OCC
120 to 122 | CCCCCNS(=O)(=O)NC(=O)/C=C/c1ccc(OCCOC)cc1Oc1ncc(C(F)(F)F)cc1Cl
252 to 253 | COC(=O)c1cc2cc([N+](=O)[O-])cc(O)c2o1
154 to 156 | O=C(O)COc1ccc(OC(F)(F)F)cc1C(=O)NCc1cccc([N+](=O)[O-])c1
153 to 154 | COC(=O)c1nc(-c2ccc(Cl)cc2)cc(N(C)C)c1N
192 to 195 | O=C(O)/C=C/C(=O)/C=C/c1ccc(C(F)(F)F)cc1
133 to 134 | CCCCOCCOc1ccc(-c2cc(/C=C(\C)C(=O)O)c3c(c2)CCCN3C)cc1
292 to 293 | O=C(O)c1ccc(-c2nc(-c3cccc(Oc4ccccc4)c3)no2)cc1
221 to 222 | N#Cc1cc(C(F)(F)F)nn1-c1ccc(NC(=O)c2ccncc2Cl)cc1
192 | O=C(OCc1ccccc1)c1cc2cc([N+](=O)[O-])ccc2[nH]1
196 to 198 | Cc1[nH]c(=O)n(CCC(C(=O)NO)N(C)S(=O)(=O)c2ccc(Oc3ccccc3)cc2)c(=O)c1F (stereo not drawn)
212 to 213 | C[C@@H](NC(=O)c1ccc(-c2ccccn2)s1)[C@](O)(Cn1cncn1)c1ccc(F)cc1F
127 to 129 | CC(C)(NC(=O)CCn1cncc1C=O)c1ccc(Cl)cc1
153 to 156 | C=C(C(=O)OC)c1ccc2c(=O)c3ccccc3ccc2c1
96 to 97 | CN(C(=O)OCc1ccccc1)c1ccc(OCC(=O)O)cc1
166 to 167 | COc1cc(Nc2nccc(-c3cccc(N)c3)n2)cc(OC)c1OC
90 to 92 | COC(=O)C(C)(C)CCCOc1cc(C)c(NS(=O)(=O)c2ccc(OC)cc2)cc1C
175 | COC(=O)c1ccc(N)c(NC(=O)c2ccc(C(C)(C)C)cc2)c1
144 to 145 | CCSc1ccc(-c2coc3ccc(-c4nnc(C)o4)cc23)cc1
